Where two headings read alike, the source gives them in different places.
Target: T1, STAT6 (Homo sapiens, UniProt P42226)
T1 construct: endogenous in cells; host or cells: MOLM-16, KU-812, SKNO1, MB231, L1236
T1 sequence (P42226 1-847): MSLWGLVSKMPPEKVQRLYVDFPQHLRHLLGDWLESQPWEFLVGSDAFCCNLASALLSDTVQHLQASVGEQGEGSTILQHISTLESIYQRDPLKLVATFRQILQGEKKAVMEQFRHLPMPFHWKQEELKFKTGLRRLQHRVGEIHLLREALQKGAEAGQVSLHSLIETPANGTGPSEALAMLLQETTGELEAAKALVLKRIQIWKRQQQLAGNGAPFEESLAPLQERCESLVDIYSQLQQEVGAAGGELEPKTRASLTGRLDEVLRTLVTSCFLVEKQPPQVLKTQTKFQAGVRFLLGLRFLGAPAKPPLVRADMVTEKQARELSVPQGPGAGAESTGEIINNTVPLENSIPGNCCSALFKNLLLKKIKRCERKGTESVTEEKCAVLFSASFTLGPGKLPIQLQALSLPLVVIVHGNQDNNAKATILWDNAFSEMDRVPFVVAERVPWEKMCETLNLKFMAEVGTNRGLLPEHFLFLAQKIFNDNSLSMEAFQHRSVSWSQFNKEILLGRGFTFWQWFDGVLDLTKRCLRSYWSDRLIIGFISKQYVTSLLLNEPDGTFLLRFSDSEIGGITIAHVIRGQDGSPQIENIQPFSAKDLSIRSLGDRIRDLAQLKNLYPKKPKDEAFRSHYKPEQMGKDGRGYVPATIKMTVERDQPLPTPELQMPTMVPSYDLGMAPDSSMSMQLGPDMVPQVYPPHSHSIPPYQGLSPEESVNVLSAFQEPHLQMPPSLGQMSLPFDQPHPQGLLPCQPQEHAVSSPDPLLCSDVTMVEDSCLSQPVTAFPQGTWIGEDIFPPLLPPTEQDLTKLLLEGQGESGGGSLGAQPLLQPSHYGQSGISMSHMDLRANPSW
Test: Immunoblotting (Western blot) analysis of STAT6 degradation efficiency of degraders in treated cells
Format: cell-based
Experimental: Evaluation of the degradation efficiency of degraders may be accomplished by immunoblotting analysis. The representative general protocol is the following:
Cells are maintained in the appropriate culture medium with 10% FBS at 37° C. and an atmosphere of 5% CO2. Cell lines are used within three months of thawing fresh vials. Cells are lysed 1× Cell Lysis Buffer (Cell Signaling Technology, #9803), resolved by SDS-PAGE NuPAGE gel (Thermo Fisher Scientific), and transferred to a PVDF membrane (Millipore). Membranes are blocked using Odyssey TBS Blocker Buffer (LI-COR). IRDye 680RD and 800CW Dye-labeled secondary antibodies (LI-COR) are used. The washed membranes are scanned using Odyssey CLx imager (LI-COR). The intensity of Western blot signaling is quantitated using the Odyssey software. Primary antibodies used are: STAT5 Rabbit mAb (Cell Signaling Technology, #94205), STAT6 Rabbit mAb (Cell Signaling Technology, #5397) and GAPDH mouse monoclonal antibody (Santa Cruz Biotechnology, sc-47724).
To evaluate the degradation efficiency of degraders, immunoblotting analysis was performed. The general protocol is the following.
About 1 million cells for each data point were treated with compounds at indicated concentrations and durations. Untreated and treated cells in cell culture medium were transferred into tubes, followed by centrifugation at 3,000 rpm and 4° C. for 6 min Supernatants were removed from tubes and radioimmunoprecipitation assay (RIPA) lysis buffer supplemented with 1% protease inhibitor cocktail (Fisher Scientific cat. PI87786) and phosphatase inhibitor (Roche cat. 04906837001) were added to tubes containing the remaining cell pellets. The tubes were then left on ice for 30 min and placed in a −80° C. freezer. Subsequently they were thawed in 37° C. water, then centrifuged at 14,000 rpm for 15 min and the cell lysates transferred to new tubes. The concentration of total proteins in each tube was calculated using the Pierce BCA protein Assay kit (cat. 23225). Based on the calculated protein concentration, cell lysates containing approximately the same amount of proteins were transferred to new tubes, then distilled water and 4× Protein Sample Loading Buffer for Western Blots (LI-COR cat. 928-40004) supplemented with 20% of mercaptoethanol (Sigma Aldrich cat. M6250) were added on ice. The cell lysates were then reduced and denatured at 95° C. for 5 min. From the tubes containing cell lysates an equal amount of protein samples (20-40 μg) was loaded into precast 8%, 10%, 4%-12%, or 4%-20% Tris-glycine gels (Novex) filled with Tris-glycine SDS running buffer. After the proteins were resolved, they were transferred onto Immobile-FL PVDF Membrane (Millipore Sigma cat. IPFL00010), using Mini Trans-Blot Electrophoretic Transfer Cell (Bio-Rad 1703930). The membranes were blocked with Intercept Blocking Buffer (LI-COR cat. 927-70001) in LI-COR Western Blot boxes for 1 h at rt. The membranes were washed with 1× Tris-buffered saline-Tween-20 (TBST, 1× solution was made from 20×TBST solution, ThermoFisher Scientific cat. 28360) for 5 min 4 times. The membranes were incubated overnight at 4° C. in Intercept Blocking Buffer supplemented with primary antibodies (normally antibody:buffer 1:1000) and Tween-20. The membranes were washed with TBST for 5 min 4 times and were incubated with Intercept Blocking Buffer supplemented with IRDye 800CE Secondary Antibodies, IRDye 680RD Secondary Antibodies (LI-COR biosciences), Tween-20, and 10% SDS solution, for 1 h at rt. The membranes were then washed with TBST for 5 min 4 times and rinsed with deionized water before drying and scanning with Odyssey Dlx Amazing System (LI-COR). The immunoblots were finally quantified by the software.

[1] = L1236 cells, read-out: DC50 S6 L1236
[2] = MOLM-16 cells, class symbols, read-out: DC50 S6 MOLM-16

SMILES | DC50 [2] [µM] | DC50 [1] [µM] | DC50 (MB231 cells, read-out: DC50 S6 MB231) [µM]
Cc1ncsc1-c1ccc([C@H](C)NC(=O)[C@@H]2C[C@@H](O)CN2C(=O)[C@@H](NC(=O)CCCCCCCCCNC(=O)COc2ccc3c(c2)CN(C(=O)[C@@H](NC(=O)c2cc4cc(C(F)(F)P(=O)(O)O)ccc4s2)C(C)(C)C)[C@H](C(=O)N2CCO[C@H](c4ccccc4)C2)C3)C(C)(C)C)cc1 [Compound 469, (difluoro(2-(((S)-1-((S)-7-(2-((10-(((S)-1-((2S,4R)-4-hydroxy-2-(((S)-1-(4-(4-methylthiazol-5-yl)phenyl)ethyl)carbamoyl)pyrrolidin-1-yl)-3,3-dimethyl-1-oxobutan-2-yl)amino)-10-oxodecyl)amino)-2-oxoethoxy)-3-((R)-2-phenylmorpholine-4-carbonyl)-3,4-dihydroisoquinolin-2(1H)-yl)-3,3-dimethyl-1-oxobutan-2-yl)carbamoyl)benzo[b]thiophen-5-yl)methyl)phosphonic acid] | > 10 | > 10 | 
Cc1ncsc1-c1ccc([C@H](C)NC(=O)[C@@H]2C[C@@H](O)CN2C(=O)[C@@H](NC(=O)CNC(=O)CC(=O)N2CCN(C(=O)[C@@H](NC(=O)c3cc4cc(C(F)(F)P(=O)(O)O)ccc4s3)C(C)(C)C)[C@H](C(=O)N3CCO[C@H](c4ccccc4)C3)C2)C(C)(C)C)cc1 [Compound 443, (difluoro(2-(((S)-1-((S)-4-(3-((2-(((S)-1-((2S,4R)-4-hydroxy-2-(((S)-1-(4-(4-methylthiazol-5-yl)phenyl)ethyl)carbamoyl)pyrrolidin-1-yl)-3,3-dimethyl-1-oxobutan-2-yl)amino)-2-oxoethyl)amino)-3-oxopropanoyl)-2-((R)-2-phenylmorpholine-4-carbonyl)piperazin-1-yl)-3,3-dimethyl-1-oxobutan-2-yl)carbamoyl)benzo[b]thiophen-5-yl)methyl)phosphonic acid] | > 10 | > 10 | 
Cc1cc([C@H](C(=O)N2C[C@H](O)C[C@H]2C(=O)N[C@@H](CC(=O)NCCCCCCCCCCNC(=O)CCN(C(=O)[C@@H]2CCCN2C(=O)[C@@H](NC(=O)c2cc3cc(C(F)(F)P(=O)(O)O)ccc3s2)C(C)(C)C)c2ccc(Br)cc2)c2ccc(-c3scnc3C)cc2)C(C)C)on1 [Compound 407, ((2-(((S)-1-((S)-2-((4-bromophenyl)(3-((10-((S)-3-((2S,4R)-4-hydroxy-1-((R)-3-methyl-2-(3-methylisoxazol-5-yl)butanoyl)pyrrolidine-2-carboxamido)-3-(4-(4-methylthiazol-5-yl)phenyl)propanamido)decyl)amino)-3-oxopropyl)carbamoyl)pyrrolidin-1-yl)-3,3-dimethyl-1-oxobutan-2-yl)carbamoyl)benzo[b]thiophen-5-yl)difluoromethyl)phosphonic acid] |  |  | > 10

Second part, led by results:

DC50 [2] [µM] | SMILES | DC50 [1] [µM] | DC50 (MB231 cells, read-out: DC50 S6 MB231) [µM]
> 10 | CC(C)(C)[C@H](NC(=O)c1cc2cc(C(F)(F)P(=O)(O)O)ccc2s1)C(=O)N1C[C@@H](OCC(=O)NCCCCCCCCCC#Cc2cccc3c2C(=O)N(C2CCC(=O)NC2=O)C3=O)C[C@H]1C(=O)N1CCC[C@H](c2ccccc2)C1 (stereo partly drawn) [Compound 505, ((2-(((2S)-1-((2S,4S)-4-(2-((11-(2-(2,6-dioxopiperidin-3-yl)-1,3-dioxoisoindolin-4-yl)undec-10-yn-1-yl)amino)-2-oxoethoxy)-2-((R)-3-phenylpiperidine-1-carbonyl)pyrrolidin-1-yl)-3,3-dimethyl-1-oxobutan-2-yl)carbamoyl)benzo[b]thiophen-5-yl)difluoromethyl)phosphonic acid] |  | 
> 10 | O=C1CCC(N2Cc3c(C#CCCCCCC(=O)N4CC[C@H]5CC[C@@H](C(=O)N6CCOC(c7ccc(F)c(Cl)c7)C6)N5C(=O)[C@@H](NC(=O)c5cc6cc(C(F)(F)P(=O)(O)O)ccc6s5)C4)cccc3C2=O)C(=O)N1 (stereo partly drawn) [Compound 564, ((2-(((5S,8S,10aR)-8-(2-(3-chloro-4-fluorophenyl)morpholine-4-carbonyl)-3-(8-(2-(2,6-dioxopiperidin-3-yl)-1-oxoisoindolin-4-yl)oct-7-ynoyl)-6-oxodecahydropyrrolo[1,2-a][1,5]diazocin-5-yl)carbamoyl)benzo[b]thiophen-5-yl)difluoromethyl)phosphonic acid] | > 10 | 
> 10 | CC(C)(C)[C@H](NC(=O)c1cc2cc(C(F)(F)P(=O)(O)O)ccc2s1)C(=O)N1C[C@@H](OCC(=O)NCCCCCCCCCC#Cc2cccc3c2C(=O)N(C2CCC(=O)NC2=O)C3=O)C[C@H]1C(=O)N1CCO[C@H](c2ccccc2)C1 (stereo partly drawn) [Compound 491, ((2-(((2S)-1-((2S,4S)-4-(2-((11-(2-(2,6-dioxopiperidin-3-yl)-1,3-dioxoisoindolin-4-yl)undec-10-yn-1-yl)amino)-2-oxoethoxy)-2-((R)-2-phenylmorpholine-4-carbonyl)pyrrolidin-1-yl)-3,3-dimethyl-1-oxobutan-2-yl)carbamoyl)benzo[b]thiophen-5-yl)difluoromethyl)phosphonic acid] |  | 
> 10 | CC(C)(C)[C@H](NC(=O)c1cc2cc(C(F)(F)P(=O)(O)O)ccc2s1)C(=O)N1Cc2cc(OCC(=O)NCCCCCCCCCC#Cc3cccc4c3C(=O)N(C3CCC(=O)NC3=O)C4=O)ccc2C[C@H]1C(=O)N1CCC[C@H](c2ccccc2)C1 (stereo partly drawn) [Compound 561, ((2-(((2S)-1-((3S)-7-(2-((11-(2-(2,6-dioxopiperidin-3-yl)-1,3-dioxoisoindolin-4-yl)undec-10-yn-1-yl)amino)-2-oxoethoxy)-3-((R)-3-phenylpiperidine-1-carbonyl)-3,4-dihydroisoquinolin-2(1H)-yl)-3,3-dimethyl-1-oxobutan-2-yl)carbamoyl)benzo[b]thiophen-5-yl)difluoromethyl)phosphonic acid] |  | 
> 10 | CC(C)(C)[C@H](NC(=O)c1cc2cc(C(F)(F)P(=O)(O)O)ccc2s1)C(=O)N1C[C@@H](OCC(=O)NCCC#Cc2cccc3c2C(=O)N(C2CCC(=O)NC2=O)C3=O)C[C@H]1C(=O)N1CCO[C@H](c2ccccc2)C1 (stereo partly drawn) [Compound 481, ((2-(((2S)-1-((2S,4S)-4-(2-((4-(2-(2,6-dioxopiperidin-3-yl)-1,3-dioxoisoindolin-4-yl)but-3-yn-1-yl)amino)-2-oxoethoxy)-2-((R)-2-phenylmorpholine-4-carbonyl)pyrrolidin-1-yl)-3,3-dimethyl-1-oxobutan-2-yl)carbamoyl)benzo[b]thiophen-5-yl)difluoromethyl)phosphonic acid] |  | 

Source: US20230295197A1, “STAT5 and STAT6 Degraders and Uses Thereof” (REGENTS OF THE UNIVERSITY OF MICHICAN, priority 2022, published 2023)
